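1) Cells in 96-well plates. 2) Compound, 48 h, 5 concentrations. 3) Linear interpolation between surrounding doses. 4) Unreached endpoint = highest concentration. TGI is the concentration that stops growth completely.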 Where a SMILES comes first, the peptide text is derived from it. [ ]: non-standard residue; d: D form. The star is where a group is joined. Boc = CC(C)(C)OC(=O)*; Lac = C[CH](O)C(=O)O; OBn = c1ccc(CO*)cc1
Legend:
Experiment in all cases: NCI-60 cell line screen, 48 h
SK-MEL-5 melanoma = system: SK-MEL-5 melanoma
MDA-MB-435 = system: MDA-MB-435
COLO 205 colon = system: COLO 205 colon
SR leukemia = system: SR leukemia
SK-MEL-28 melanoma = system: SK-MEL-28 melanoma
K-562 leukemia = system: K-562 leukemia
CAKI-1 renal = system: CAKI-1 renal
SK-MEL-2 melanoma = system: SK-MEL-2 melanoma
MDA-MB-231 breast = system: MDA-MB-231 breast
U251 CNS = system: U251 CNS
SNB-75 CNS = system: SNB-75 CNS
HS 578T breast = system: HS 578T breast
ACHN renal = system: ACHN renal
HT29 colon = system: HT29 colon

## CC(OC(=O)C(Cc1ccccc1)NC(=O)C(Cc1ccccc1)NC(=O)OC(C)(C)C)C(=O)OCc1ccccc1 (stereo not drawn) (Boc-Phe-Phe-[Lac]-OBn; configuration not given here)
SK-MEL-5 melanoma
  TGI: > 100 µM
MDA-MB-435
  TGI: > 100 µM
COLO 205 colon
  TGI: > 100 µM
SR leukemia
  TGI: > 100 µM
SK-MEL-28 melanoma
  TGI: > 100 µM
K-562 leukemia
  TGI: > 100 µM
CAKI-1 renal
  TGI: > 100 µM
SK-MEL-2 melanoma
  TGI: > 100 µM
MDA-MB-231 breast
  TGI: > 100 µM
U251 CNS
  TGI: > 100 µM
SNB-75 CNS
  TGI: > 100 µM
HS 578T breast
  TGI: > 100 µM

## C/C(=C\CO)CC/C=C(\C)CNc1c(F)c(F)c(F)c(F)c1F
ACHN renal
  TGI: > 100 µM
SK-MEL-5 melanoma
  TGI: 31.9 µM
MDA-MB-435
  TGI: 53.8 µM
COLO 205 colon
  TGI: 67.1 µM
SR leukemia
  TGI: 74.9 µM
SK-MEL-28 melanoma
  TGI: 41.1 µM
K-562 leukemia
  TGI: 92 µM
CAKI-1 renal
  TGI: > 100 µM
SK-MEL-2 melanoma
  TGI: 48.6 µM
MDA-MB-231 breast
  TGI: 40.5 µM
U251 CNS
  TGI: 59.2 µM
HT29 colon
  TGI: 52.3 µM
SNB-75 CNS
  TGI: 66.3 µM
HS 578T breast
  TGI: 74.6 µM

## Cn1c2ccc([N+](=O)[O-])cc2c(=O)n1Cc1ccccc1F
ACHN renal
  TGI: > 100 µM
SK-MEL-5 melanoma
  TGI: > 100 µM
MDA-MB-435
  TGI: > 100 µM
COLO 205 colon
  TGI: > 100 µM
SR leukemia
  TGI: > 100 µM
SK-MEL-28 melanoma
  TGI: > 100 µM
K-562 leukemia
  TGI: > 100 µM
CAKI-1 renal
  TGI: > 100 µM
SK-MEL-2 melanoma
  TGI: > 100 µM
MDA-MB-231 breast
  TGI: > 100 µM
U251 CNS
  TGI: > 100 µM
HT29 colon
  TGI: > 100 µM
SNB-75 CNS
  TGI: 70.2 µM
HS 578T breast
  TGI: 82.8 µM

## CC1OC(OC2C(OC(=O)[C@]34CCC(C)(C)C[C@H]3C3=CC[C@@H]5[C@@]6(C)CC[C@H](OC7OC(C(=O)O)C(O)C(O)C7O)C(C)(C)[C@@H]6CC[C@@]5(C)[C@]3(C)C[C@H]4O)OCC(O)C2O)C(O)C(O)C1OC1OCC(OC2OCC(O)C(O)C2O)C(O)C1O (stereo not given in full)
ACHN renal
  TGI: 15.8 µM
SK-MEL-5 melanoma
  TGI: 27.2 µM
MDA-MB-435
  TGI: 17.8 µM
COLO 205 colon
  TGI: 3.32 µM
SR leukemia
  TGI: 53.9 µM
SK-MEL-28 melanoma
  TGI: 11.7 µM
K-562 leukemia
  TGI: 47.8 µM
CAKI-1 renal
  TGI: 21.6 µM
SK-MEL-2 melanoma
  TGI: 11.7 µM
MDA-MB-231 breast
  TGI: 11.9 µM
U251 CNS
  TGI: 21.2 µM
HT29 colon
  TGI: 11 µM
SNB-75 CNS
  TGI: 26.1 µM
HS 578T breast
  TGI: 37.9 µM

## Cn1c(=O)c2c3ccccc3n(C)c2n(C)c1=O
ACHN renal
  TGI: > 100 µM
SK-MEL-5 melanoma
  TGI: > 100 µM
MDA-MB-435
  TGI: > 100 µM
COLO 205 colon
  TGI: > 100 µM
SR leukemia
  TGI: > 100 µM
K-562 leukemia
  TGI: > 100 µM
CAKI-1 renal
  TGI: > 100 µM
SK-MEL-2 melanoma
  TGI: > 100 µM
MDA-MB-231 breast
  TGI: > 100 µM
U251 CNS
  TGI: > 100 µM
HT29 colon
  TGI: > 100 µM
SNB-75 CNS
  TGI: > 100 µM
HS 578T breast
  TGI: > 100 µM

## COc1ccc(NC(=S)Nc2cc(C)cc(C)n2)cc1
SK-MEL-5 melanoma
  TGI: > 100 µM
MDA-MB-435
  TGI: > 100 µM
COLO 205 colon
  TGI: > 100 µM
SR leukemia
  TGI: > 100 µM
SK-MEL-28 melanoma
  TGI: > 100 µM
K-562 leukemia
  TGI: > 100 µM
CAKI-1 renal
  TGI: > 100 µM
SK-MEL-2 melanoma
  TGI: > 100 µM
MDA-MB-231 breast
  TGI: > 100 µM
U251 CNS
  TGI: > 100 µM
HT29 colon
  TGI: > 100 µM
SNB-75 CNS
  TGI: > 100 µM
HS 578T breast
  TGI: > 100 µM

## Cc1ccc(Cc2n[nH]c(=O)[nH]2)cc1
ACHN renal
  TGI: > 100 µM
SK-MEL-5 melanoma
  TGI: > 100 µM
MDA-MB-435
  TGI: > 100 µM
COLO 205 colon
  TGI: > 100 µM
SR leukemia
  TGI: > 100 µM
SK-MEL-28 melanoma
  TGI: > 100 µM
K-562 leukemia
  TGI: > 100 µM
CAKI-1 renal
  TGI: > 100 µM
SK-MEL-2 melanoma
  TGI: > 100 µM
MDA-MB-231 breast
  TGI: > 100 µM
U251 CNS
  TGI: > 100 µM
HT29 colon
  TGI: > 100 µM
SNB-75 CNS
  TGI: > 100 µM
HS 578T breast
  TGI: > 100 µM

## O=C1C=Cc2c(Br)sc(Br)c21
ACHN renal
  TGI: 57.7 µM
SK-MEL-5 melanoma
  TGI: > 100 µM
MDA-MB-435
  TGI: 46.1 µM
COLO 205 colon
  TGI: > 100 µM
SR leukemia
  TGI: 75.2 µM
SK-MEL-28 melanoma
  TGI: 84.9 µM
K-562 leukemia
  TGI: 54.5 µM
CAKI-1 renal
  TGI: 41.1 µM
SK-MEL-2 melanoma
  TGI: 70.3 µM
MDA-MB-231 breast
  TGI: 52.4 µM
U251 CNS
  TGI: 38.2 µM
HT29 colon
  TGI: 85.9 µM
SNB-75 CNS
  TGI: > 100 µM
HS 578T breast
  TGI: > 100 µM

## C1=CC2(C=CC13O[C@H](C1CCCCC1)[C@@H](C1CCCCC1)O3)O[C@H](C1CCCCC1)[C@@H](C1CCCCC1)O2
ACHN renal
  TGI: > 50 µM
SK-MEL-5 melanoma
  TGI: > 50 µM
MDA-MB-435
  TGI: > 50 µM
COLO 205 colon
  TGI: > 50 µM
SR leukemia
  TGI: > 50 µM
SK-MEL-28 melanoma
  TGI: > 50 µM
K-562 leukemia
  TGI: > 50 µM
CAKI-1 renal
  TGI: > 50 µM
SK-MEL-2 melanoma
  TGI: > 50 µM
MDA-MB-231 breast
  TGI: > 50 µM
U251 CNS
  TGI: > 50 µM
HT29 colon
  TGI: > 50 µM
SNB-75 CNS
  TGI: > 50 µM
HS 578T breast
  TGI: > 50 µM

## O=C1N(C2CCCCC2)C(=O)N1C1CCCCC1
ACHN renal
  TGI: 12 µM
SK-MEL-5 melanoma
  TGI: 4.88 µM
MDA-MB-435
  TGI: > 81.4 µM
COLO 205 colon
  TGI: 16.2 µM
SR leukemia
  TGI: 8.83 µM
SK-MEL-28 melanoma
  TGI: 20.7 µM
K-562 leukemia
  TGI: 13.4 µM
CAKI-1 renal
  TGI: 25.2 µM
SK-MEL-2 melanoma
  TGI: 85.5 µM
MDA-MB-231 breast
  TGI: 15.6 µM
U251 CNS
  TGI: 18.7 µM
HT29 colon
  TGI: 25.3 µM
SNB-75 CNS
  TGI: > 100 µM
HS 578T breast
  TGI: 2.93 µM

## O=C(NC(=S)Nc1ccc(Br)cc1)c1ccc2c(c1)Sc1ccccc1S2
ACHN renal
  TGI: 34.2 µM
SK-MEL-5 melanoma
  TGI: > 100 µM
MDA-MB-435
  TGI: > 100 µM
COLO 205 colon
  TGI: > 100 µM
SR leukemia
  TGI: 35.5 µM
SK-MEL-28 melanoma
  TGI: > 100 µM
K-562 leukemia
  TGI: 24.5 µM
CAKI-1 renal
  TGI: 38.2 µM
SK-MEL-2 melanoma
  TGI: 57.9 µM
MDA-MB-231 breast
  TGI: 38.2 µM
U251 CNS
  TGI: 35 µM
HT29 colon
  TGI: 95.1 µM
SNB-75 CNS
  TGI: 29.2 µM
HS 578T breast
  TGI: 59.7 µM

Source: PubChem BioAssay (NCI)
